Assay results: US8247211B2, “Glycopeptide antibiotics” (American Cyanamid Company, priority 2001, dated 2012)
≈ marks a conversion by molar mass, not a printed value.

How the values were obtained:
Assay in all cases: In vitro antibacterial evaluation: minimum inhibitory concentration (MIC), broth dilution method
Assay type in all cases: cell-based
Escherichia coli [1] = test system: Escherichia coli
In short: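 Using Muller-Hinton II […] and an inoculum of 5×10^5 CFU/mL, antibiotic dilutions from 64 down to 0.06 μg/mL were tested following NCCLS M7-A2. The MIC is the lowest concentration inhibiting growth, including in methicillin-, penicillin- or vancomycin-resistant clinical isolates.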

Enterococcus sp. = settings: for MIC Enterococcus faecalis (GC 2242) / MIC Enterococcus faecalis (GC 4552): 18 hours at 35° C.
In short: (§1)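 Following NCCLS approved standard M7-A2, compounds are serially diluted from 64 to 0.06 μg/mL in Muller-Hinton II […] and inoculated at 5×10^5 CFU/mL; the MIC is the minimum concentration at which growth is inhibited.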

Staphylococcus sp. = settings: 18 hours at 35° C.
In short: as §1

Streptococcus sp. = settings: 18 hours at 35° C.
In short: as §1

Escherichia coli [2] = test system: Escherichia coli; remark: listed apart in the source

Structure (SMILES)	MIC Escherichia coli (GC 4559) (Escherichia coli [1]) [µg/mL]	MIC Escherichia coli (GC 4560) (Escherichia coli [1]) [µg/mL]	MIC Enterococcus avium (GC 4558) (Enterococcus sp.) [µg/mL]	MIC Enterococcus faecalis (ATCC 29212) (Enterococcus sp.) [µg/mL]	MIC Enterococcus faecalis (GC 2242) (Enterococcus sp.) [µg/mL]	MIC Enterococcus faecalis (GC 4552) (Enterococcus sp.) [µg/mL]	MIC Enterococcus faecalis (GC 4553) (Enterococcus sp.) [µg/mL]	MIC Enterococcus faecalis (GC 4554) (Enterococcus sp.) [µg/mL]	MIC Enterococcus faecium (GC 2243) (Enterococcus sp.) [µg/mL]	MIC Enterococcus faecium (GC 4556) (Enterococcus sp.) [µg/mL]	MIC Enterococcus faecium (GC 4557) (Enterococcus sp.) [µg/mL]	MIC Coagulase Negative Staphylococcus (GC 4547) (Staphylococcus sp.) [µg/mL]	MIC Coagulase Negative Staphylococcus (GC 4547) (Staphylococcus sp.; broth dilution) [µg/mL]	MIC Coagulase Negative Staphylococcus (GC 4548) (Staphylococcus sp.) [µg/mL]	MIC Coagulase Negative Staphylococcus (GC 4548) (Staphylococcus sp.; broth dilution) [µg/mL]	MIC Coagulase Negative Staphylococcus (GC 4549) (Staphylococcus sp.) [µg/mL]	MIC Coagulase Negative Staphylococcus (GC 4549) (Staphylococcus sp.; broth dilution) [µg/mL]	MIC Coagulase Negative Staphylococcus (GC 4551) (Staphylococcus sp.) [µg/mL]	MIC Coagulase Negative Staphylococcus (GC 4551) (Staphylococcus sp.; broth dilution) [µg/mL]	MIC Staphylococcus aureus (ATCC 29213) (Staphylococcus sp.) [µg/mL]	also measured
CC(C)CC(=O)OC1C(OC2C(CO)OC(Oc3ccc(CC4NC(=O)C(C(C)c5cccc(F)c5)NC(=O)CNC(=O)C(CO)NC(=O)C(C(O)C5CNC(=N)N5C5OC(CO)C(O)C(O)C5O)NC(=O)C(C(O)C5CNC(=N)N5)NC4=O)cc3)C(O)C2O)OC(CO)C(O)C1O (stereo not shown) [Example 264a]	>64	4 (≈ 2.86 µM)	>64	64 (≈ 45.8 µM)	64 (≈ 45.8 µM)	>64	>64	>64	>64	64 (≈ 45.8 µM)	32 (≈ 22.9 µM)	8 (≈ 5.72 µM)	8 (≈ 5.72 µM)	4 (≈ 2.86 µM)	4 (≈ 2.86 µM)	4 (≈ 2.86 µM)	4 (≈ 2.86 µM)	16 (≈ 11.4 µM)	16 (≈ 11.4 µM)	16 (≈ 11.4 µM)	MIC Staphylococcus aureus (ATCC 29213) (Staphylococcus sp.; broth dilution): 16 µg/mL (≈ 11.4 µM); MIC Staphylococcus aureus (GC 1131) (Staphylococcus sp.): 16 µg/mL (≈ 11.4 µM); MIC Staphylococcus aureus (GC 1131) (Staphylococcus sp.; broth dilution): 16 µg/mL (≈ 11.4 µM); MIC Staphylococcus aureus (GC 4541) (Staphylococcus sp.): 16 µg/mL (≈ 11.4 µM); MIC Staphylococcus aureus (GC 4541) (Staphylococcus sp.; broth dilution): 16 µg/mL (≈ 11.4 µM); MIC Staphylococcus aureus (GC 4542) (Staphylococcus sp.): 16 µg/mL (≈ 11.4 µM); MIC Staphylococcus aureus (GC 4542) (Staphylococcus sp.; broth dilution): 16 µg/mL (≈ 11.4 µM); MIC Staphylococcus aureus (GC 4544) (Staphylococcus sp.): 8 µg/mL (≈ 5.72 µM); MIC Staphylococcus aureus (GC 4544) (Staphylococcus sp.; broth dilution): 8 µg/mL (≈ 5.72 µM); MIC Staphylococcus aureus (GC 4545) (Staphylococcus sp.): 8 µg/mL (≈ 5.72 µM); MIC Staphylococcus aureus (GC 4545) (Staphylococcus sp.; broth dilution): 8 µg/mL (≈ 5.72 µM); MIC Staphylococcus aureus-SMITH (GC 4543) (Staphylococcus sp.): 8 µg/mL (≈ 5.72 µM); MIC Staphylococcus aureus-SMITH (GC 4543) (Staphylococcus sp.; broth dilution): 8 µg/mL (≈ 5.72 µM); MIC Staphylococcus haemolyticus (GC 4546) (Staphylococcus sp.): 8 µg/mL (≈ 5.72 µM); MIC Staphylococcus haemolyticus (GC 4546) (Staphylococcus sp.; broth dilution): 8 µg/mL (≈ 5.72 µM); MIC Streptococcus agalactiae (GC 4564) (Streptococcus sp.): 8 µg/mL (≈ 5.72 µM); MIC Streptococcus pyogenes (ID-3187) (Streptococcus sp.): 4 µg/mL (≈ 2.86 µM); MIC Escherichia coli (ATCC 25922) (Escherichia coli [2]): 64 µg/mL (≈ 45.8 µM)
CC(C)CC(=O)OC1C(O)C(CO)OC(OC2C(CO)OC(Oc3ccc(CC4NC(=O)C(C(C)c5cccc(F)c5)NC(=O)CNC(=O)C(CO)NC(=O)C(C(O)C5CNC(=N)N5C5OC(CO)C(O)C(O)C5O)NC(=O)C(C(O)C5CNC(=N)N5)NC4=O)cc3)C(O)C2O)C1O (stereo not shown) [Example 264b]	>64	4 (≈ 2.86 µM)	64 (≈ 45.8 µM)	64 (≈ 45.8 µM)	32 (≈ 22.9 µM)	64 (≈ 45.8 µM)	64 (≈ 45.8 µM)	64 (≈ 45.8 µM)	64 (≈ 45.8 µM)	64 (≈ 45.8 µM)	8 (≈ 5.72 µM)	4 (≈ 2.86 µM)	4 (≈ 2.86 µM)	4 (≈ 2.86 µM)	4 (≈ 2.86 µM)	4 (≈ 2.86 µM)	4 (≈ 2.86 µM)	8 (≈ 5.72 µM)	8 (≈ 5.72 µM)	8 (≈ 5.72 µM)	MIC Staphylococcus aureus (ATCC 29213) (Staphylococcus sp.; broth dilution): 8 µg/mL (≈ 5.72 µM); MIC Staphylococcus aureus (GC 1131) (Staphylococcus sp.): 8 µg/mL (≈ 5.72 µM); MIC Staphylococcus aureus (GC 1131) (Staphylococcus sp.; broth dilution): 8 µg/mL (≈ 5.72 µM); MIC Staphylococcus aureus (GC 4541) (Staphylococcus sp.): 8 µg/mL (≈ 5.72 µM); MIC Staphylococcus aureus (GC 4541) (Staphylococcus sp.; broth dilution): 8 µg/mL (≈ 5.72 µM); MIC Staphylococcus aureus (GC 4542) (Staphylococcus sp.): 8 µg/mL (≈ 5.72 µM); MIC Staphylococcus aureus (GC 4542) (Staphylococcus sp.; broth dilution): 8 µg/mL (≈ 5.72 µM); MIC Staphylococcus aureus (GC 4544) (Staphylococcus sp.): 8 µg/mL (≈ 5.72 µM); MIC Staphylococcus aureus (GC 4544) (Staphylococcus sp.; broth dilution): 8 µg/mL (≈ 5.72 µM); MIC Staphylococcus aureus (GC 4545) (Staphylococcus sp.): 4 µg/mL (≈ 2.86 µM); MIC Staphylococcus aureus (GC 4545) (Staphylococcus sp.; broth dilution): 4 µg/mL (≈ 2.86 µM); MIC Staphylococcus aureus-SMITH (GC 4543) (Staphylococcus sp.): 8 µg/mL (≈ 5.72 µM); MIC Staphylococcus aureus-SMITH (GC 4543) (Staphylococcus sp.; broth dilution): 8 µg/mL (≈ 5.72 µM); MIC Staphylococcus haemolyticus (GC 4546) (Staphylococcus sp.): 4 µg/mL (≈ 2.86 µM); MIC Staphylococcus haemolyticus (GC 4546) (Staphylococcus sp.; broth dilution): 4 µg/mL (≈ 2.86 µM); MIC Streptococcus agalactiae (GC 4564) (Streptococcus sp.): 4 µg/mL (≈ 2.86 µM); MIC Streptococcus pyogenes (ID-3187) (Streptococcus sp.): 4 µg/mL (≈ 2.86 µM); MIC Escherichia coli (ATCC 25922) (Escherichia coli [2]): 64 µg/mL (≈ 45.8 µM)
